system: MV-4-11 cells; assay: Cell Viability Assay in MV-4-11 Cells; assay type: cell-based; conditions: Homo sapiens, MV4-11, 72 h
Method in brief: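 Luminescent ATP read-out (CellTiter-Glo) after 72 h compound treatment of MV-4-11 leukaemia cells (7,000 per well, IMDM plus 10% FBS). Values expressed relative to DMSO control and derived by four-parameter non-linear regression.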

Q: With `C=CCc1ccnc(N(C(=O)c2ccc(Cl)c(CC=C)c2)[C@@H]2CCCNC2)c1` [Example 362, 3-allyl-N-(4-allyl-2-pyridyl)-4-chloro-N-[(3R)-3-piperidyl]benzamide] as the compound, how does the IC50 read?
A: 4.3 µM

same assay, conditions: Homo sapiens, MV4-11, 72 h, MV-4-11 cells, 72 h, Cell-Titer Glo; read-out: IC50

Q: For `CCn1cc(-c2ccc(C(=O)N(c3nccc4scc(C)c34)[C@@H]3CCCNC3)cc2)nn1` [Example 859, 4-(1-ethyltriazol-4-yl)-N-(3-methylthieno[3,2-c]pyridin-4-yl)-N-[(3R)-3-piperidyl] benzamide], which IC50 is on record?
A: 0.1 µM

Q: How did the IC50 turn out when `O=C(c1ccc(-n2nnc3cccnc32)cc1F)N(c1nccc2sc(-c3ccc(B(O)O)cc3)cc12)[C@@H]1CCCNC1` [Example 569, [4-[4-[[2-fluoro-4-(triazolo[4,5-b]pyridin-3-yl)benzoyl]-[(3R)-3-piperidyl]amino]thieno[3,2-c]pyridin-2-yl]phenyl]boronic acid] was run?
A: 0.57 µM

Q: Which IC50 does the source give for `COC1CCN(c2ccnc(Nc3ccc(C(=O)N(c4nccc5cccc(C)c45)[C@@H]4CCCNC4)c(F)c3)n2)CC1` [Example 716, (R)-2-fluoro-4-((4-(4-methoxypiperidin-1-yl)pyrimidin-2-yl)amino)-N-(8-methylisoquinolin-1-yl)-N-(piperidin-3-yl)benzamide] here?
A: 0.034 µM

Q: For `COc1cc(C)c2c(N(C(=O)c3ccc(-c4nnc(C)s4)nc3)[C@@H]3CCCNC3)nccc2c1` [Example 901, N-(6-methoxy-8-methyl-1-isoquinolyl)-6-(5-methyl-1,3,4-thiadiazol-2-yl)-N-[(3R)-3-piperidyl]pyridine-3-carboxamide], which IC50 is on record?
A: 0.048 µM

Q: For `Cc1nnc(-c2ccc(C(=O)N(c3nccc4sc(C#CCCC(N)=O)cc34)[C@@H]3CCCNC3)c(F)c2)s1` [Example 817, N-[2-(5-amino-5-oxo-pent-1-ynyl)thieno[3,2-c]pyridin-4-yl]-2-fluoro-4-(5-methyl-1,3,4-thiadiazol-2-yl)-N-[(3R)-3-piperidyl]benzamide], which IC50 is on record?
A: 3.6 µM

Q: With `Cc1cccc2ccnc(N(C(=O)c3cccc(C#CCCCCO)c3)[C@@H]3CCCNC3)c12` [Example 514, (R)-3-(6-hydroxyhex-1-yn-1-yl)-N-(8-methylisoquinolin-1-yl)-N-(piperidin-3-yl)benzamide] as the compound, how does the IC50 read?
A: 0.89 µM

Q: How did the IC50 turn out when `Cn1cc(-c2ccc(C(=O)N(c3nccc4sc(Cc5cccnc5)cc34)[C@@H]3CCCNC3)c(F)c2)nn1` [Example 488, 2-fluoro-4-(1-methyltriazol-4-yl)-N-[(3R)-3-piperidyl]-N-[2-(3-pyridylmethyl)thieno[3,2-c]pyridin-4-yl]benzamide] was run?
A: 0.65 µM

Q: `Cc1cccc2ccnc(N(C(=O)c3ccc(Nc4ccccn4)nc3)[C@@H]3CCCNC3)c12` [Example 843, (R)—N-(8-methylisoquinolin-1-yl)-N-(piperidin-3-yl)-6-(pyridin-2-ylamino)nicotinamide] was tested. Which IC50 did it give?
A: 2.2 µM

Q: With `Cc1csc2ccnc(N(C(=O)c3ccc(-c4cn(C)nn4)cc3)[C@@H]3CCCNC3)c12` [Example 799, (R)-4-(1-methyl-1H-1,2,3-triazol-4-yl)-N-(3-methylthieno[3,2-c]pyridin-4-yl)-N-(piperidin-3-yl)benzamide] as the compound, how does the IC50 read?
A: 0.079 µM

Q: How did the IC50 turn out when `NS(=O)(=O)c1ccc(-c2cc3c(N(C(=O)c4ccc(-n5nnc6cccnc65)cc4F)[C@@H]4CCCNC4)nccc3s2)cc1` [Example 414, 2-fluoro-N-[(3R)-3-piperidyl]-N-[2-(4-sulfamoylphenyl)thieno[3,2-c]pyridin-4-yl]-4-(triazolo[4,5-b]pyridin-3-yl)benzamide] was run?
A: 0.22 µM

Q: `Cc1cccc2ccnc(N(C(=O)c3ccc(N4CCOc5ccccc54)cc3F)[C@@H]3CCCNC3)c12` [Example 645, 4-(2,3-dihydro-1,4-benzoxazin-4-yl)-2-fluoro-N-(8-methyl-1-isoquinolyl)-N-[(3R)-3-piperidyl] benzamide] was tested. Which IC50 did it give?
A: 2.4 µM

Q: How did the IC50 turn out when `Cc1cc(C#CC(C)(C)O)cc2ccnc(N(C(=O)c3ccc(-n4nnc5cccnc54)cc3F)[C@@H]3CCCNC3)c12` [Example 587, (R)-4-(3H-[1,2,3]triazolo[4,5-b]pyridin-3-yl)-2-fluoro-N-(6-(3-hydroxy-3-methylbut-1-yn-1-yl)-8-methylisoquinolin-1-yl)-N-(piperidin-3-yl)benzamide] was run?
A: 0.014 µM

Q: With `Cc1cccc2ccnc(N(C(=O)c3ccc(Nc4ncccn4)c(Cl)c3)[C@@H]3CCCNC3)c12` [Example 847, (R)-3-chloro-N-(8-methylisoquinolin-1-yl)-N-(piperidin-3-yl)-4-(pyrimidin-2-ylamino)benzamide] as the compound, how does the IC50 read?
A: 2 µM

Q: Which IC50 does the source give for `COCCc1nnc(-c2ccc(C(=O)N(c3nccc4scc(C)c34)[C@@H]3CCCNC3)cc2)s1` [Example 633, (R)-4-(5-(2-methoxyethyl)-1,3,4-thiadiazol-2-yl)-N-(3-methylthieno[3,2-c]pyridin-4-yl)-N-(piperidin-3-yl)benzamide] here?
A: 0.031 µM

Q: For `Cc1csc2ccnc(N(C(=O)c3ccc(-c4nnn(C)c4C)cc3F)[C@@H]3CCCNC3)c12` [Example 782, (R)-4-(1,5-dimethyl-1H-1,2,3-triazol-4-yl)-2-fluoro-N-(3-methylthieno[3,2-c]pyridin-4-yl)-N-(piperidin-3-yl)benzamide], which IC50 is on record?
A: 0.12 µM

Q: For `Cc1cccc2ccnc(N(C(=O)c3ccc(Nc4nccc(-c5ccccn5)n4)cc3F)[C@@H]3CCCNC3)c12` [Example 728, (R)-2-fluoro-N-(8-methylisoquinolin-1-yl)-N-(piperidin-3-yl)-4-((4-(pyridin-2-yl)pyrimidin-2-yl)amino)benzamide], which IC50 is on record?
A: 0.086 µM

Q: `Cc1cccc2ccnc(N(C(=O)c3ccc(Nc4ncnc(N5CCCCC5)n4)cc3F)[C@@H]3CCCNC3)c12` [Example 969, 2-fluoro-N-(8-methylisoquinolin-1-yl)-4-{[4-(piperidin-1-yl)-1,3,5-triazin-2-yl]amino}-N-[(3R)-piperidin-3-yl]benzamide] was tested. Which IC50 did it give?
A: 0.045 µM

Q: Which IC50 does the source give for `Cc1cccc2ccnc(N(C(=O)c3ccc(Nc4nccc(O)n4)cc3F)[C@@H]3CCCNC3)c12` [Example 735, (R)-2-fluoro-4-((4-hydroxypyrimidin-2-yl)amino)-N-(8-methylisoquinolin-1-yl)-N-(piperidin-3-yl)benzamide] here?
A: > 6.2 µM

Q: Which IC50 does the source give for `Cc1cc(Cl)cc2ccnc(N(C(=O)c3ccc(-c4cc(Cl)cnn4)cn3)[C@@H]3CCCNC3)c12` [Example 769, (R)—N-(6-chloro-8-methylisoquinolin-1-yl)-5-(5-chloropyridazin-3-yl)-N-(piperidin-3-yl)picolinamide] here?
A: 0.12 µM

Q: For `CC(=O)c1ccc2c(N(C(=O)c3ccc(-c4cn(C)nn4)cc3F)[C@@H]3CCCNC3)nccc2c1` [Example 610, (R)—N-(6-acetylisoquinolin-1-yl)-2-fluoro-4-(1-methyl-1H-1,2,3-triazol-4-yl)-N-(piperidin-3-yl)benzamide], which IC50 is on record?
A: 0.086 µM

Q: Which IC50 does the source give for `Cn1cc(-c2ccc(C(=O)N(c3nccc4cc(-c5ccc(S(C)(=O)=O)cc5)ccc34)[C@@H]3CCCNC3)c(F)c2)nn1` [Example 582, (R)-2-fluoro-4-(1-methyl-1H-1,2,3-triazol-4-yl)-N-(6-(4-(methylsulfonyl)phenyl)isoquinolin-1-yl)-N-(piperidin-3-yl)benzamide] here?
A: 0.22 µM

Q: For `O=C(c1ccc(-n2nnc3cccnc32)cc1F)N(c1nccc2sc(-c3ccccn3)cc12)[C@@H]1CCCNC1` [Example 365, 2-fluoro-N-[(3R)-3-piperidyl]-N-[2-(2-pyridyl)thieno[3,2-c]pyridin-4-yl]-4-(triazolo[4,5-b]pyridin-3-yl)benzamide], which IC50 is on record?
A: 0.48 µM

Reference: patent US20240400555A1 (Initial Therapeutics, Inc., priority 2023, published 2024)
